Laboratory results from paper PMC8252737 (Angewandte Chemie (International Ed. in English), 2021).

What was measured:
EV D68 3C protease [1] = target: T1, EV D68 3C protease (Enterovirus D68, UniProt A1E4A3); assay: Tryptic digest and MS of protein-inhibitor complex; type: binding; settings: trypsin digest of protein-inhibitor complex
T1 sequence (A1E4A3 1549-1731): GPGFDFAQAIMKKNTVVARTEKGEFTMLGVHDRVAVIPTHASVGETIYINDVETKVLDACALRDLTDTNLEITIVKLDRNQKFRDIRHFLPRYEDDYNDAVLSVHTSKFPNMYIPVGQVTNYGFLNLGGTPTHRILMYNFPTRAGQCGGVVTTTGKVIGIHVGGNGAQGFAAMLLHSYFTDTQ

EV D68 3C protease [2] = target: T1, EV D68 3C protease; assay: Fragment ligation screening / FRET assay of fragments and aldehyde 1; type: biochemical; settings: fragment 19 μM + aldehyde 1 19 μM, 2 h incubation, p<0.05

Row | SMILES | Alkylation of the 13mer peptide containing Cys147 (EV D68 3C protease [1]) | Inhibition of the protease in combination with aldehyde 1 compared to the aldehyde alone (EV D68 3C protease [2])
1 | CCOC(=O)C=Cc1cccc(C(N)=O)c1 [Compound 13, O‐ethyl 3‐carbamoyl‐cinnamoyl ester] | complete alkylation | –
2 | CC(=O)CC#N [Compound F4, 3‐oxo‐butane nitrile] | – | significantly increased inhibition
3 | CCOC(=O)CC#N [Compound F1, O‐ethyl 2‐cyano‐acetate] | – | significantly increased inhibition
